What follows are compounds tested against T1, human PAH with the R408W mutation (A375 R408W cells) (Homo sapiens, UniProt P00439, R408W) (assay: Cell Based Phenylalanine Flux Assay). Conditions: A375 R408W cells; 24 hrs with compound, then 20 μM sepiapterin and 800 μM 13C9,15N-Phenylalanine for 4 hours; 13C-Tyrosine by LC-MS; average where tested multiple times.
T1 construct: expressed in transfected cells
T1 sequence (P00439 1-452 R408W): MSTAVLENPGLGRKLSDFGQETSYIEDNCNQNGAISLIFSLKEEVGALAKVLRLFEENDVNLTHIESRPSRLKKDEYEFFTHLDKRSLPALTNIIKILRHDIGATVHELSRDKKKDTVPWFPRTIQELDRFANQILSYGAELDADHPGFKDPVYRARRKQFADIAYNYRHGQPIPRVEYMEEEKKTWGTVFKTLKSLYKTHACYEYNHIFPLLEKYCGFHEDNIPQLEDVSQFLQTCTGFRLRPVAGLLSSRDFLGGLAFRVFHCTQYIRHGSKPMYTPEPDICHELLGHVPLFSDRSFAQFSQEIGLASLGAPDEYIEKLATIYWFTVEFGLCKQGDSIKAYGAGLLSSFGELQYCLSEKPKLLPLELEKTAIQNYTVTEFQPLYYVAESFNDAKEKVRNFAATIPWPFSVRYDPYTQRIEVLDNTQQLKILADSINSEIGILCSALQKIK
Method in brief: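 A375 cells stably expressing human PAH R408W treated 24 h at 37° C with a 10-point 2-fold dose curve in duplicate, 0.5% DMSO. Then 20 μM sepiapterin and 800 μM 13C9,15N-Phe added for 4 h; 13C-Tyr in media measured by LC-MS to give AC50.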

Structure (SMILES) | AC50
O=C(c1oc(N2CCC(F)CC2)nc1C(F)F)N1CCc2[nH]cnc2[C@@H]1c1nc2cccc(F)c2o1 [Example 675, (R)-(4-(difluoromethyl)-2-(4-fluoropiperidin-1-yl)oxazol-5-yl)(4-(7-fluorobenzo[d]oxazol-2-yl)-6,7-dihydro-1H-imidazo[4,5-c]pyridin-5(4H)-yl)methanone] | ≤ 500 nM
CC1CN(C(=O)c2ocnc2C(F)F)[C@@H](c2nc3cccc(F)c3o2)c2nc[nH]c21 (single isomer, unassigned) [Example 805] | 1000 to 5000 nM
CC(C)(O)c1nc(C(F)F)c(C(=O)N2CCc3[nH]cnc3[C@@H]2c2nc3cc(F)cc(F)c3o2)o1 [Example 308, (R)-(4-(5,7-difluorobenzo[d]oxazol-2-yl)-6,7-dihydro-1H-imidazo[4,5-c]pyridin-5(4H)-yl)(4-(difluoromethyl)-2-(2-hydroxypropan-2-yl)oxazol-5-yl)methanone] | ≤ 500 nM
CC(O)c1nc(Br)c(C(=O)N2CCc3[nH]cnc3[C@@H]2c2nc3cc(F)ccc3o2)o1 (single isomer, unassigned) [Example 224] | 1000 to 5000 nM
COc1cccc2oc([C@H]3c4nc[nH]c4CCN3C(=O)c3oc(C(C)(C)O)nc3C(F)F)nc12 [Example 428, (R)-(4-(difluoromethyl)-2-(2-hydroxypropan-2-yl)oxazol-5-yl)(4-(4-methoxybenzo[d]oxazol-2-yl)-6,7-dihydro-1H-imidazo[4,5-c]pyridin-5(4H)-yl)methanone] | 1000 to 5000 nM
CNc1cn2ncc(C(=O)N3CCc4[nH]cnc4[C@@H]3c3nc4cc(F)ccc4o3)c2cc1Cl [Example 206, (R)-(5-chloro-6-(methylamino)pyrazolo[1,5-a]pyridin-3-yl)(4-(5-fluorobenzo[d]oxazol-2-yl)-6,7-dihydro-1H-imidazo[4,5-c]pyridin-5(4H)-yl)methanone] | 1000 to 5000 nM
CC(F)(F)c1ncoc1C(=O)N1CCc2[nH]cnc2[C@H]1c1nc2cc(F)ccc2o1 [Example 153, (S)-(4-(1,1-difluoroethyl)oxazol-5-yl)(4-(5-fluorobenzo[d]oxazol-2-yl)-6,7-dihydro-1H-imidazo[4,5-c]pyridin-5(4H)-yl)methanone] | 500 to 1000 nM
CC(C)(O)c1nc(Cl)c(C(=O)N2CCc3[nH]cnc3[C@H]2c2nc3c(F)cccc3o2)o1 [Example 274, (S)-(4-chloro-2-(2-hydroxypropan-2-yl)oxazol-5-yl)(4-(4-fluorobenzo[d]oxazol-2-yl)-6,7-dihydro-1H-imidazo[4,5-c]pyridin-5(4H)-yl)methanone] | 500 to 1000 nM
O=C(c1ccnn1CC(F)F)N1CCc2[nH]cnc2[C@@H]1c1nc2c(F)cccc2o1 [Example 849, (R)-(1-(2,2-difluoroethyl)-1H-pyrazol-5-yl)(4-(4-fluorobenzo[d]oxazol-2-yl)-6,7-dihydro-1H-imidazo[4,5-c]pyridin-5(4H)-yl)methanone] | ≤ 500 nM
Cn1ccc(-c2nc(C(F)F)c(C(=O)N3CCc4[nH]cnc4[C@@H]3c3nc4cc(F)ccc4o3)o2)n1 [Example 412, (R)-(4-(difluoromethyl)-2-(1-methyl-1H-pyrazol-3-yl)oxazol-5-yl)(4-(5-fluorobenzo[d]oxazol-2-yl)-6,7-dihydro-1H-imidazo[4,5-c]pyridin-5(4H)-yl)methanone] | 500 to 1000 nM
O=C(c1oc(-c2ccccn2)nc1C(F)(F)F)N1CCc2[nH]cnc2[C@@H]1c1nc2cccc(F)c2o1 [Example 637, (R)-(4-(7-fluorobenzo[d]oxazol-2-yl)-6,7-dihydro-1H-imidazo[4,5-c]pyridin-5(4H)-yl)(2-(pyridin-2-yl)-4-(trifluoromethyl)oxazol-5-yl)methanone] | ≤ 500 nM
C[C@@H](O)c1nc(C(F)F)c(C(=O)N2CCc3[nH]cnc3[C@H]2c2nc3cc(F)ccc3o2)o1 [Example 151, (4-(difluoromethyl)-2-((R)-1-hydroxyethyl)oxazol-5-yl)((S)-4-(5-fluorobenzo[d]oxazol-2-yl)-6,7-dihydro-1H-imidazo[4,5-c]pyridin-5(4H)-yl)methanone] | ≤ 500 nM
COc1cccc2oc([C@H]3c4nc[nH]c4CCN3C(=O)c3cnco3)nc12 [Example 622, (R)-(4-(4-methoxybenzo[d]oxazol-2-yl)-6,7-dihydro-1H-imidazo[4,5-c]pyridin-5(4H)-yl)(oxazol-5-yl)methanone] | 1000 to 5000 nM
O=C(c1nnc(-c2ccccn2)o1)N1Cc2[nH]cnc2[C@@H]1c1nc2ccccc2o1 [Example 938, (R)-(4-(benzo[d]oxazol-2-yl)-4,6-dihydropyrrolo[3,4-d]imidazol-5(1H)-yl)(5-(pyridin-2-yl)-1,3,4-oxadiazol-2-yl)methanone] | 1000 to 5000 nM
CC(O)c1nc(Br)c(C(=O)N2CCc3[nH]cnc3[C@H]2c2nc3cc(F)ccc3o2)o1 (single isomer, unassigned) [Example 226] | ≤ 500 nM
Cc1ccc2oc([C@@H]3c4nc[nH]c4CCN3C(=O)c3nnc(-c4cnn(C(F)F)c4)o3)nc2c1 [Example 673, (S)-(5-(1-(difluoromethyl)-1H-pyrazol-4-yl)-1,3,4-oxadiazol-2-yl)(4-(5-methylbenzo[d]oxazol-2-yl)-6,7-dihydro-1H-imidazo[4,5-c]pyridin-5(4H)-yl)methanone] | ≤ 500 nM
COc1ccc2c(C(=O)N3CCc4[nH]cnc4[C@H]3c3nc4cc(F)ccc4o3)cnn2c1 [Example 73, (S)-(4-(5-fluorobenzo[d]oxazol-2-yl)-6,7-dihydro-1H-imidazo[4,5-c]pyridin-5(4H)-yl)(6-methoxypyrazolo[1,5-a]pyridin-3-yl)methanone] | 500 to 1000 nM
COc1ccc(-c2nc(C(F)F)c(C(=O)N3CCc4[nH]cnc4[C@H]3c3nc4cc(F)ccc4o3)o2)nc1 [Example 445, (S)-(4-(difluoromethyl)-2-(5-methoxypyridin-2-yl)oxazol-5-yl)(4-(5-fluorobenzo[d]oxazol-2-yl)-6,7-dihydro-1H-imidazo[4,5-c]pyridin-5(4H)-yl)methanone] | ≤ 500 nM
O=C(c1ocnc1C(F)F)N1CCc2[nH]cnc2[C@@H]1c1nc2cc(OC(F)(F)F)ccc2o1 [Example 353, (R)-(4-(difluoromethyl)oxazol-5-yl)(4-(5-(trifluoromethoxy)benzo[d]oxazol-2-yl)-6,7-dihydro-1H-imidazo[4,5-c]pyridin-5(4H)-yl)methanone] | ≤ 500 nM
O=C(c1oc(-c2cccnc2)nc1C(F)F)N1CCc2[nH]cnc2[C@@H]1c1nc2cccc(F)c2o1 [Example 589, (R)-(4-(difluoromethyl)-2-(pyridin-3-yl)oxazol-5-yl)(4-(7-fluorobenzo[d]oxazol-2-yl)-6,7-dihydro-1H-imidazo[4,5-c]pyridin-5(4H)-yl)methanone] | ≤ 500 nM
CN(C)CCc1ccc2c(C(=O)N3CCc4[nH]cnc4[C@@H]3c3nc4cc(F)ccc4o3)cnn2c1 [Example 48, (R)-(6-(2-(dimethylamino)ethyl)pyrazolo[1,5-a]pyridin-3-yl)(4-(5-fluorobenzo[d]oxazol-2-yl)-6,7-dihydro-1H-imidazo[4,5-c]pyridin-5(4H)-yl)methanone] | ≥ 5000 nM
Cc1nc(C(=O)N2CCc3[nH]cnc3[C@@H]2c2nc3cccc(F)c3o2)n(C)n1 [Example 496, (R)-(1,3-dimethyl-1H-1,2,4-triazol-5-yl)(4-(7-fluorobenzo[d]oxazol-2-yl)-6,7-dihydro-1H-imidazo[4,5-c]pyridin-5(4H)-yl)methanone] | 1000 to 5000 nM
Cn1cc(-c2nnc(C(=O)N3CCc4[nH]cnc4[C@@H]3c3nc4cc(F)ccc4o3)o2)cn1 [Example 68, (R)-(4-(5-fluorobenzo[d]oxazol-2-yl)-6,7-dihydro-1H-imidazo[4,5-c]pyridin-5(4H)-yl)(5-(1-methyl-1H-pyrazol-4-yl)-1,3,4-oxadiazol-2-yl)methanone] | 1000 to 5000 nM
COc1cccc2nc([C@H]3c4nc[nH]c4CCN3C(=O)c3oc(C(C)(C)O)nc3C(F)F)oc12 [Example 456, (R)-(4-(difluoromethyl)-2-(2-hydroxypropan-2-yl)oxazol-5-yl)(4-(7-methoxybenzo[d]oxazol-2-yl)-6,7-dihydro-1H-imidazo[4,5-c]pyridin-5(4H)-yl)methanone] | 1000 to 5000 nM

Same assay, conditions: A375 cells expressing R408W PAH; 24 hrs with compound, then 20 μM sepiapterin and 800 μM 13C9,15N-Phenylalanine for 4 hours; 13C-Tyrosine by LC-MS; average where tested multiple times

Structure (SMILES) | AC50
O=C(C1CC1)N1CCc2[nH]cnc2[C@@H]1c1nc2cc(F)ccc2o1 (single isomer, unassigned) | ≥ 5000 nM
COCc1ncc(C(=O)N2CCc3[nH]cnc3C2c2nc3cc(F)ccc3o2)s1 (centres unmarked) | 1000 to 5000 nM
COc1ccc2oc(C3c4nc[nH]c4CCN3C(=O)c3cnc(C(C)(C)O)o3)nc2c1 (centres unmarked) | ≥ 5000 nM
O=C(c1cnco1)N1CCc2[nH]cnc2C1c1nc2c(F)c(F)ccc2o1 (centres unmarked) | 1000 to 5000 nM
CC(C)(O)c1nc(C(F)F)c(CN2CCc3[nH]cnc3C2c2nc3cc(F)ccc3o2)o1 (centres unmarked) | ≥ 5000 nM
Cn1cc(-c2ncc(C(=O)N3CCc4[nH]cnc4C3c3nc4cc(F)ccc4o3)o2)cn1 (centres unmarked) | ≥ 5000 nM
COC(C)(C)c1nc(C)c(C(=O)N2CCc3[nH]cnc3C2c2nc3cc(F)ccc3o2)o1 (centres unmarked) | ≥ 5000 nM
Cn1cc(-c2nnc(C(=O)N3CCc4[nH]cnc4C3c3nc4cc(C(F)(F)F)ccc4o3)o2)cn1 (centres unmarked) | 1000 to 5000 nM

From US20250171437A1 (Agios Pharmaceuticals,Inc., priority 2022, published 2025)
